Data from patent US10689354B2, “Aminoazole derivative” (Teijin Pharma Limited, priority 2015, dated 2020).

Legend:
[1] = molecular target: T1, androgen receptor (AR-LBD) (Rattus norvegicus, UniProt P15207); assay: Evaluation of androgen receptor affinity (PolarScreen Androgen Receptor Competitor Assay Kit, Red; fluorescence polarization); conditions: 22° C. for 5 hours, relative to binding rate of 1 μM DHT, read-out: AR affinity (pEC50) (converted)
T1 construct: 5 μL of 2×AR-LBD/Fluoromone AL Red Complex contained in the kit; purchased Invitrogen
T1 sequence (P15207 651-882 limits assumed): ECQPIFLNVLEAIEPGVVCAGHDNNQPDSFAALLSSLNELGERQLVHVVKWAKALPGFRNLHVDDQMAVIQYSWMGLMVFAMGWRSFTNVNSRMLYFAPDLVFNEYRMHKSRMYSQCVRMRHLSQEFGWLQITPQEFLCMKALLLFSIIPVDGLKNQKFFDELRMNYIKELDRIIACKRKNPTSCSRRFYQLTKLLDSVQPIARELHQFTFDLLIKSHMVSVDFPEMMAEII
How it was run: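 Test compound and the 2× AR-LBD/Fluoromone AL Red complex were combined in duplicate wells. After reacting 5 h at 22° C, polarization was measured. pEC50 was derived by 4-parameter fitting, normalizing to binding obtained with 1 μM dihydrotestosterone.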

[2] = molecular target: T2, human androgen receptor (Homo sapiens, UniProt P10275); assay: Reporter assay of an androgen receptor responsive sequence (luciferase, transiently transfected HEK293 cells); type: cell-based; conditions: 24 hours incubation, relative to activity of 100 nM DHT, read-out: AR transcriptive activity (pEC50) (converted)
T2 construct: expressed in transfected cells; host or cells: HEK293
T2 sequence (P10275 1-920): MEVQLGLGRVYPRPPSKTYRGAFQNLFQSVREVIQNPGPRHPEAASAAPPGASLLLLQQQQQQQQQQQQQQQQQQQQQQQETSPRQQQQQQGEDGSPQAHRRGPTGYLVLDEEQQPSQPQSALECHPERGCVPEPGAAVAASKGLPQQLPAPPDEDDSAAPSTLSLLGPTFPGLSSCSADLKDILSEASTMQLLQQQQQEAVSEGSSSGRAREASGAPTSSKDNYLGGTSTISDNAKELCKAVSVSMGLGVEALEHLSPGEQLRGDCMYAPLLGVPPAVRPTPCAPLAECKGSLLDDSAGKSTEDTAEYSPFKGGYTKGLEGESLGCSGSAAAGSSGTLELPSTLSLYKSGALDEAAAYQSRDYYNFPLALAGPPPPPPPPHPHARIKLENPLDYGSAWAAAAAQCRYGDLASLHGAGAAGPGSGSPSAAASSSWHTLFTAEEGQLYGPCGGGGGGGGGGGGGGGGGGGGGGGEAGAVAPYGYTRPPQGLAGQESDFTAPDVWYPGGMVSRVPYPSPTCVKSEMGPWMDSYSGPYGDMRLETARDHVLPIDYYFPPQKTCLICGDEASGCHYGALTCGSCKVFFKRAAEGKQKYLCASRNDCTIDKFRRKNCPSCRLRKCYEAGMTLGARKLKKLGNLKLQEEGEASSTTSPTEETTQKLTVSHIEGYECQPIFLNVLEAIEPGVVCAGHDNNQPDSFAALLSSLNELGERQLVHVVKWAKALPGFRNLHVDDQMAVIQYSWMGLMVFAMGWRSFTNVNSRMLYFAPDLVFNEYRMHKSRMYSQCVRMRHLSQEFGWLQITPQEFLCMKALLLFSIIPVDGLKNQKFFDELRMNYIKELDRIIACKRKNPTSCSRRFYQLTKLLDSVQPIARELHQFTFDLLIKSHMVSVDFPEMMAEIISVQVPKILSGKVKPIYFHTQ
How it was run: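 Agonism scored as pEC50, fitted by 4-parameter curve against the response to 100 nM DHT, from dual-luciferase readout after 24 h compound treatment. Cells were HEK293 co-transfected (3 h) with human AR expression vector, androgen-responsive firefly reporter and Renilla control, in charcoal-stripped serum.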

| Structure (SMILES) | EC50 [1] | EC50 [2] |
| --- | --- | --- |
| Cc1sc(N(Cc2ccc(F)cc2)c2ccc(C#N)cc2)nc1C(=O)NS(C)(=O)=O [Compound 15, 2-[4-cyano-N-[(4-fluorophenyl)methyl]anilino]-5-methyl-N-methylsulfonyl-thiazole-4-carboxamide] | 63.1 nM | 39.8 nM |
| Cc1sc(N(Cc2ccc(C#N)cc2)c2ccc(C#N)cc2)nc1C(=O)NS(C)(=O)=O [Compound 10, 2-[4-cyano-N-[(4-cyanophenyl)methyl]anilino]-5-methyl-N-methylsulfonyl-thiazole-4-carboxamide] | 126 nM | 1000 nM |
| Cc1sc(N(Cc2ccc(Br)cc2Cl)c2ccc(C#N)cc2)nc1C(=O)NS(C)(=O)=O [Example 183, 2-[N-[(4-bromo-2-chloro-phenyl)methyl]-4-cyano-anilino]-5-methyl-N-methylsulfonyl-thiazole-4-carboxamide] | 63.1 nM | 501 nM |
| CCc1sc(N(Cc2ccccc2)c2ccc(C#N)cc2)nc1C(=O)NS(C)(=O)=O [Compound 599, 2-(N-benzyl-4-cyano-anilino)-5-ethyl-N-methylsulfonyl-thiazole-4-carboxamide] | 63.1 nM | 79.4 nM |
| Cc1sc(N(CC2COc3ccccc3C2)c2ccc(C#N)cc2)nc1C(=O)NS(C)(=O)=O (centres unmarked) [Compound 510, 2-[N-(chroman-3-ylmethyl)-4-cyano-anilino]-5-methyl-N-methylsulfonyl-thiazole-4-carboxamide] | 126 nM | 1260 nM |
| CS(=O)(=O)NC(=O)c1nc(N(Cc2ccc(OC(F)(F)F)cc2)c2ccc(C#N)cc2)sc1Cl [Example 274, 5-chloro-2-[4-cyano-N-[[4-(trifluoromethoxy)phenyl]methyl]anilino]-N-methylsulfonyl-thiazole-4-carboxamide] | 39.8 nM | 79.4 nM |
| Cc1sc(N(CCc2ccc(C#N)cc2)Cc2ccc(OC(F)(F)F)cc2)nc1C(=O)NS(C)(=O)=O [Compound 323, 2-[2-(4-cyanophenyl)ethyl-[[4-(trifluoromethoxy)phenyl]methyl]amino]-5-methyl-N-methylsulfonyl-thiazole-4-carboxamide] | 25.1 nM | 251 nM |
| CNC(=O)c1ccc(CCN(Cc2ccccc2)c2nc(C(=O)NS(C)(=O)=O)c(C)s2)cc1 [Compound 738, 2-[benzyl-[2-[4-(methylcarbamoyl)phenyl]ethyl]amino]-5-methyl-N-methylsulfonyl-thiazole-4-carboxamide] | 501 nM | 6310 nM |
| COc1cccc(CN(CCc2ccc(Cl)cc2)c2nc(C(=O)NS(C)(=O)=O)c(C)s2)n1 [Compound 502, 2-[2-(4-chlorophenyl)ethyl-[(6-methoxy-2-pyridyl)methyl]amino]-5-methyl-N-methylsulfonyl-thiazole-4-carboxamide] | 39.8 nM | 794 nM |
| CS(=O)(=O)NC(=O)c1nc(N(Cc2ccc(Cl)cc2)c2ccc(C#N)cc2)sc1Br [Example 248, 5-bromo-2-[N-[(4-chlorophenyl)methyl]-4-cyano-anilino]-N-methylsulfonyl-thiazole-4-carboxamide] | 31.6 nM | 25.1 nM |

Other lines, results leading:

| EC50 [1] | EC50 [2] | Structure (SMILES) |
| --- | --- | --- |
| 251 nM | 2000 nM | Cc1oc(N(Cc2ccccc2)c2ccc(C#N)cc2)nc1C(=O)NS(C)(=O)=O [Compound 598, 2-(N-benzyl-4-cyano-anilino)-5-methyl-N-methylsulfonyl-oxazole-4-carboxamide] |
| 50.1 nM | 31.6 nM | CS(=O)(=O)NC(=O)c1nc(N(Cc2ccccc2)c2ccc(C#N)cc2)sc1Br [Compound 603, 2-(N-benzyl-4-cyano-anilino)-5-bromo-N-methylsulfonyl-thiazole-4-carboxamide] |
| 31.6 nM | 25.1 nM | CS(=O)(=O)NC(=O)c1nc(N(Cc2ccc(C(F)(F)F)cc2)c2ccc(C#N)cc2)sc1Cl [Example 272, 5-chloro-2-[4-cyano-N-[[4-(trifluoromethyl)phenyl]methyl]anilino]-N-methylsulfonyl-thiazole-4-carboxamide] |
| 39.8 nM | 3160 nM | Cc1oc(N(CCc2ccc(OC(F)(F)F)cc2)Cc2ccc(Cl)cn2)nc1C(=O)NS(C)(=O)=O [Compound 561, 2-[(5-chloro-2-pyridyl)methyl-[2-[4-(trifluoromethoxy)phenyl]ethyl]amino]-5-methyl-N-methylsulfonyl-oxazole-4-carboxamide] |
| 79.4 nM | 316 nM | Cc1sc(N(Cc2ccc(F)cc2Cl)c2ccc(C#N)cc2)nc1C(=O)NS(C)(=O)=O [Compound 106, 2-[N-[(2-chloro-4-fluoro-phenyl)methyl]-4-cyano-anilino]-5-methyl-N-methylsulfonyl-thiazole-4-carboxamide] |
| 316 nM | > 10000 nM | COCCOCCCS(=O)(=O)NC(=O)c1nc(N(Cc2ccc(OC(F)(F)F)cc2)c2ccc(C#N)cc2)sc1C [Compound 540, 2-[4-cyano-N-[[4-(trifluoromethoxy)phenyl]methyl]anilino]-N-[3-(2-methoxyethoxy)propylsulfonyl]-5-methyl-thiazole-4-carboxamide] |
| 501 nM | 3160 nM | Cc1sc(N(Cc2ccccc2)c2ccc(-n3cncn3)cc2)nc1C(=O)NS(C)(=O)=O [Compound 61, 2-[N-benzyl-4-(1,2,4-triazol-1-yl)anilino]-5-methyl-N-methylsulfonyl-thiazole-4-carboxamide] |
| 25.1 nM | 31.6 nM | Cc1sc(N(Cc2ccc(C(F)(F)F)c(F)c2)c2ccc(C#N)cc2)nc1C(=O)NS(C)(=O)=O [Example 167, 2-[4-cyano-N-[[3-fluoro-4-(trifluoromethyl)phenyl]methyl]anilino]-5-methyl-N-methylsulfonyl-thiazole-4-carboxamide] |
| 25.1 nM | 251 nM | Cc1sc(N(CCc2ccccc2O)c2ccc(C#N)cc2)nc1C(=O)NS(C)(=O)=O [Compound 379, 2-[4-cyano-N-[2-(2-hydroxyphenyl)ethyl]anilino]-5-methyl-N-methylsulfonyl-thiazole-4-carboxamide] |
| 50.1 nM | 200 nM | Cc1sc(N(Cc2csc(C(C)C)n2)c2ccc(C#N)cc2)nc1C(=O)NS(C)(=O)=O [Compound 456, 2-[4-cyano-N-[(2-isopropylthiazol-4-yl)methyl]anilino]-5-methyl-N-methylsulfonyl-thiazole-4-carboxamide] |
| 158 nM | > 10000 nM | CCc1oc(N(Cc2ccccc2OC(F)F)c2ccc(C#N)cc2)nc1C(=O)NS(C)(=O)=O [Compound 637, 2-[4-cyano-N-[[2-(difluoromethoxy)phenyl]methyl]anilino]-5-ethyl-N-methylsulfonyl-oxazole-4-carboxamide] |
| 50.1 nM | 63.1 nM | COc1c(F)ccc(CN(c2ccc(C#N)cc2)c2nc(C(=O)NS(C)(=O)=O)c(C)s2)c1F [Compound 111, 2-[4-cyano-N-[(2,4-difluoro-3-methoxy-phenyl)methyl]anilino]-5-methyl-N-methylsulfonyl-thiazole-4-carboxamide] |
| 63.1 nM | 1260 nM | CS(=O)(=O)NC(=O)c1nc(N(Cc2ccc(C(F)(F)F)nc2)c2ccc(C#N)cc2)sc1Br [Compound 645, 5-bromo-2-[4-cyano-N-[[6-(trifluoromethyl)-3-pyridyl]methyl]anilino]-N-methylsulfonyl-thiazole-4-carboxamide] |
| 31.6 nM | 100 nM | Cc1sc(N(Cc2cccc(OC(F)(F)F)c2)c2ccc(C#N)cc2)nc1C(=O)NS(C)(=O)=O [Compound 343, 2-[4-cyano-N-[[3-(trifluoromethoxy)phenyl]methyl]anilino]-5-methyl-N-methylsulfonyl-thiazole-4-carboxamide] |
| 126 nM | > 10000 nM | Cc1sc(N(Cc2ccccc2)c2ccc(C#N)cc2)nc1C(=O)NS(=O)(=O)Cc1cccc(Cl)c1 [Compound 386, 2-(N-benzyl-4-cyano-anilino)-N-[(3-chlorophenyl)methylsulfonyl]-5-methyl-thiazole-4-carboxamide] |
